# Measurements as given in patent US12655125B2 (SIRONAX LTD., priority 2020, dated 2026).
# System: HT-29 cells
# Test: HT29 Cells 0FBS Assay In Vitro (TNF-α/SMAC mimetic/zVAD-FMK induced necroptosis, CellTiter-Glo cell viability)
# Type: cell-based
# Conditions: Homo sapiens; HT-29 cells, FBS free medium, TNF-α (10 ng/ml), SMAC mimetic (6 uM), zVAD-FMK (10 μM), 20 hours; geometric mean EC50; read-out: Cell activity (EC50) of Compounds 1-116
# From the text: Protocol for HT29 Cells 0FBS Assay In Vitro
# • Cell line: HT-29 (ATCC® HTB-38™) • Culture medium: McCOY's 5 A, Gibco, Cat No. 16600-082 • FBS, Gibco, Cat No. 10099-141C • Trypsin: Gibco, Cat No. 25200-056 • DMSO: Sigma, Cat No. 67-68-5, 1 L • Assay plate: Corning #3903 • Compound dilution plate: Corning #3357 • Inducers: TNFα, GenScript, Cat No. ZO1001-50, • SmacM, Cat. No., HY-15989, MedChemExpress (MCE) • Z_VAD FMK, TargetMol, T6013 • Cell Titer-Glo® Luminescent Cell Viability Assay Kit: Promega, Cat No. G7573 • EnVision: PerkinElmer, 2105-0010 2. Cell Seeding of HT-29 Cells • 1) HT-29 cells were checked every day to make sure they are healthy and growing as expected. They were split sub-culturing when were approximately 80% confluent. • 2) First pre-warm the culture medium of McCOY's 5 A medium (Gibco, Cat No. 16600-082) with 10% FBS (Gibco, Cat No. 10099-141C) in 37° C. water bath for at least 30 min. • 3) Growing cells to desired level of confluency 80% in a T75 flask, aspirate the medium, and wash with warm PBS two times. • 4) Add 2-3 ml fresh warm trypsin (Gibco, Cat No. 25200-056) solution. Transfer the flask to a 37° C. incubator. • 5) After 5 minutes, tap the side of the flask, and examine the flask under a microscope for lifting. If necessary, return the cells to the incubator for an additional 5-10 minutes, with occasional tapping, until lifting is complete. • 6) Quickly neutralize the trypsin reaction by adding 6-9 ml cell culture medium, then transfer the cells to sterile 15 ml conical tubes. Pellet the cells by centrifugation at 300×g for 7 minutes, then decant the supernatant. • 7) Resuspend the cells in fresh cell culture medium. Do cell counting with hemocytometer. • 8) Seed 100 μl of 5,000 cells into each well of the sterile 96-well cell culture plate (Corning 3903) and culture overnight at 37° C. with 5% C02. 3. Compounds Titration and Treatment of HT-29 Cells • 1) All batches of compounds (CPDs) (e.g., compound 1-281) were dissolved in DMSO (Dimethyl sulfoxide) as 20 mM stock solution. • 2) Take 3 ul 20 mM stock solution of CPDs to 27 ul DMSO and mix well, continue the titration ratio of 1:3 (20 ul CPDs+40 ul DMSO), e.g., to give solutions of CPDS at 6.6 mM, 2.2 mM, etc., till the 10 points end. • 3) Take out assay plates with HT-29 cells from incubator, remove all culture medium then wash 1 time with 1×PBS, and change fresh McCOY's 5 A medium of FBS free with a cocktail of TNF-α (10 ng/ml), the SMAC mimetic (6 uM) and zVAD-FMK (10 μM) to stimulate the HT-29 cells to increase pRIPK1 levels and necroptosis. • 4) Add 0.5 μL of the diluted compound to the corresponding 96-well assay plates. • 5) Incubate the assay plates for 20 hours at 37° C. with 5% C02. 4. Performing Cell Viability Detection of HT-29 Cells after Treated with Compounds • 1) The CellTiter-Glo® Luminescent Cell Viability Assay was employed to detect the ATP levels of viable HT-29 cells. • 2) Equilibrate the CellTiter-Glo® buffer and the lyophilized substrate to room temperature prior to use. • 3) Resuspend the CellTiter-Glo® substrate with CellTiter-Glo® buffer, mix by gently vortexing to obtain a homogeneous solution. • 4) Pipette 20 μl the enzyme/substrate mixture by multi-channel pipette into the 96-well assay plates from step 5) under the Compounds titration and treatment stage. • 5) Place the plates on an orbital shaker and mix the contents for 3 minutes to induce cell lysis. • 6) Then allow the plates to incubate at room temperature for 10 minutes to stabilize luminescent signal. • 7) Read and record luminescence signal with EnVision. • 8) The geometric mean EC50 of the compounds were calculated from points response dose with duplicate. In Tables 2 and 4, activity is provided as follows: +++=0.1 nM≤EC50<100 nM; ++=100 nM≤EC50<1000 nM; +=1000 nM≤EC50<10000 nM.
row,Compound,EC50
1,"Cn1ncnc1-c1ncc(F)c(OC2CN(C(=O)N3N=CC[C@H]3c3cc(F)cc(F)c3)C2)n1 [compound 30, (S)-(5-(3,5-difluorophenyl)-4,5-dihydro-1H-pyrazol-1-yl)(3-((5-fluoro-2-(1-methyl-1H-1,2,4-triazol-5-yl)pyrimidin-4-yl)oxy)azetidin-1-yl)methanone]",0.1 to 100 nM
2,"Cn1cc(-c2cc(OC3CN(C(=O)N4N=CC[C@H]4c4cc(F)cc(F)c4)C3)c(F)cn2)nn1 [compound 32, (S)-(5-(3,5-difluorophenyl)-4,5-dihydro-1H-pyrazol-1-yl)(3-((5-fluoro-2-(1-methyl-1H-1,2,3-triazol-4-yl)pyridin-4-yl)oxy)azetidin-1-yl)methanone]",0.1 to 100 nM
3,"Cn1ncc(-c2cc(OC3CN(C(=O)N4N=CC[C@H]4c4cc(F)cc(F)c4)C3)c(F)cn2)n1 [compound 33, (S)-(5-(3,5-difluorophenyl)-4,5-dihydro-1H-pyrazol-1-yl)(3-((5-fluoro-2-(2-methyl-2H-1,2,3-triazol-4-yl)pyridin-4-yl)oxy)azetidin-1-yl)methanone]",0.1 to 100 nM
4,"Cn1nncc1-c1cc(OC2CN(C(=O)N3N=CC[C@H]3c3cc(F)cc(F)c3)C2)c(F)cn1 [compound 34, (S)-(5-(3,5-difluorophenyl)-4,5-dihydro-1H-pyrazol-1-yl)(3-((5-fluoro-2-(1-methyl-1H-1,2,3-triazol-5-yl)pyridin-4-yl)oxy)azetidin-1-yl)methanone]",0.1 to 100 nM
5,"Cc1cc(-c2ncc(F)c(OC3CN(C(=O)N4N=CC[C@H]4c4cc(F)cc(F)c4)C3)n2)n(C)n1 [compound 35, (S)-(5-(3,5-difluorophenyl)-4,5-dihydro-1H-pyrazol-1-yl)(3-((2-(1,3-dimethyl-1H-pyrazol-5-yl)-5-fluoropyrimidin-4-yl)oxy)azetidin-1-yl)methanone]",0.1 to 100 nM
6,"Cc1cc(-c2cc(OC3CN(C(=O)N4N=CC[C@H]4c4cc(F)cc(F)c4)C3)c(F)cn2)n(C)n1 [compound 36, (S)-(5-(3,5-difluorophenyl)-4,5-dihydro-1H-pyrazol-1-yl)(3-((2-(1,3-dimethyl-1H-pyrazol-5-yl)-5-fluoropyridin-4-yl)oxy)azetidin-1-yl)methanone]",0.1 to 100 nM
7,"Cc1nn(C)cc1-c1ncc(F)c(OC2CN(C(=O)N3N=CC[C@H]3c3cc(F)cc(F)c3)C2)n1 [compound 37, (S)-(5-(3,5-difluorophenyl)-4,5-dihydro-1H-pyrazol-1-yl)(3-((2-(1,3-dimethyl-1H-pyrazol-4-yl)-5-fluoropyrimidin-4-yl)oxy)azetidin-1-yl)methanone]",0.1 to 100 nM
8,"Cc1nn(C)cc1-c1cc(OC2CN(C(=O)N3N=CC[C@H]3c3cc(F)cc(F)c3)C2)c(F)cn1 [compound 38, (S)-(5-(3,5-difluorophenyl)-4,5-dihydro-1H-pyrazol-1-yl)(3-((2-(1,3-dimethyl-1H-pyrazol-4-yl)-5-fluoropyridin-4-yl)oxy)azetidin-1-yl)methanone]",0.1 to 100 nM
9,"Cn1ccc(-c2ncc(F)c(OC3CN(C(=O)N4N=CC[C@H]4c4cc(F)cc(F)c4)C3)n2)n1 [compound 39, (S)-(5-(3,5-difluorophenyl)-4,5-dihydro-1H-pyrazol-1-yl)(3-((5-fluoro-2-(1-methyl-1H-pyrazol-3-yl)pyrimidin-4-yl)oxy)azetidin-1-yl)methanone]",100 to 1000 nM
10,"Cc1cn(C)c(-c2cc(OC3CN(C(=O)N4N=CC[C@H]4c4cc(F)cc(F)c4)C3)c(F)cn2)n1 [compound 40, (S)-(5-(3,5-difluorophenyl)-4,5-dihydro-1H-pyrazol-1-yl)(3-((2-(1,4-dimethyl-1H-imidazol-2-yl)-5-fluoropyridin-4-yl)oxy)azetidin-1-yl)methanone]",0.1 to 100 nM
11,"Cn1nc(N)cc1-c1cc(OC2CN(C(=O)N3N=CC[C@H]3c3cc(F)cc(F)c3)C2)c(F)cn1 [compound 41, (S)-(3-((2-(3-amino-1-methyl-1H-pyrazol-5-yl)-5-fluoropyridin-4-yl)oxy)azetidin-1-yl)(5-(3,5-difluorophenyl)-4,5-dihydro-1H-pyrazol-1-yl)methanone]",0.1 to 100 nM
12,"Cc1cnn(C)c1-c1ncc(F)c(OC2CN(C(=O)N3N=CC[C@H]3c3cc(F)cc(F)c3)C2)n1 [compound 42, (S)-(5-(3,5-difluorophenyl)-4,5-dihydro-1H-pyrazol-1-yl)(3-((2-(1,4-dimethyl-1H-pyrazol-5-yl)-5-fluoropyrimidin-4-yl)oxy)azetidin-1-yl)methanone]",0.1 to 100 nM
13,"Cc1cnn(C)c1-c1cc(OC2CN(C(=O)N3N=CC[C@H]3c3cc(F)cc(F)c3)C2)c(F)cn1 [compound 43, (S)-(5-(3,5-difluorophenyl)-4,5-dihydro-1H-pyrazol-1-yl)(3-((2-(1,4-dimethyl-1H-pyrazol-5-yl)-5-fluoropyridin-4-yl)oxy)azetidin-1-yl)methanone]",0.1 to 100 nM
14,"Cc1ncn(C)c1-c1ccc(F)c(OC2CN(C(=O)N3N=CC[C@H]3c3cc(F)cc(F)c3)C2)n1 [compound 44, (S)-(5-(3,5-difluorophenyl)-4,5-dihydro-1H-pyrazol-1-yl)(3-((6-(1,4-dimethyl-1H-imidazol-5-yl)-3-fluoropyridin-2-yl)oxy)azetidin-1-yl)methanone]",0.1 to 100 nM
15,"Cc1ncn(C)c1-c1cc(OC2CN(C(=O)N3N=CC[C@H]3c3cc(F)cc(F)c3)C2)c(F)cn1 [compound 45, (S)-(5-(3,5-difluorophenyl)-4,5-dihydro-1H-pyrazol-1-yl)(3-((2-(1,4-dimethyl-1H-imidazol-5-yl)-5-fluoropyridin-4-yl)oxy)azetidin-1-yl)methanone]",0.1 to 100 nM
16,"Cc1nnn(C)c1-c1ncc(F)c(OC2CN(C(=O)N3N=CC[C@H]3c3cc(F)cc(F)c3)C2)n1 [compound 46, (S)-(5-(3,5-difluorophenyl)-4,5-dihydro-1H-pyrazol-1-yl)(3-((2-(1,4-dimethyl-1H-1,2,3-triazol-5-yl)-5-fluoropyrimidin-4-yl)oxy)azetidin-1-yl)methanone]",0.1 to 100 nM
17,"Cc1nnn(C)c1-c1cc(OC2CN(C(=O)N3N=CC[C@H]3c3cc(F)cc(F)c3)C2)c(F)cn1 [compound 47, (S)-(5-(3,5-difluorophenyl)-4,5-dihydro-1H-pyrazol-1-yl)(3-((2-(1,4-dimethyl-1H-1,2,3-triazol-5-yl)-5-fluoropyridin-4-yl)oxy)azetidin-1-yl)methanone]",0.1 to 100 nM
18,"Cn1ncc(C#N)c1-c1ncc(F)c(OC2CN(C(=O)N3N=CC[C@H]3c3cc(F)cc(F)c3)C2)n1 [compound 48, (S)-5-(4-((1-(5-(3,5-difluorophenyl)-4,5-dihydro-1H-pyrazole-1-carbonyl)azetidin-3-yl)oxy)-5-fluoropyrimidin-2-yl)-1-methyl-1H-pyrazole-4-carbonitrile]",0.1 to 100 nM
19,"Cn1ncc(C#N)c1-c1cc(OC2CN(C(=O)N3N=CC[C@H]3c3cc(F)cc(F)c3)C2)c(F)cn1 [compound 49, (S)-5-(4-((1-(5-(3,5-difluorophenyl)-4,5-dihydro-1H-pyrazole-1-carbonyl)azetidin-3-yl)oxy)-5-fluoropyridin-2-yl)-1-methyl-1H-pyrazole-4-carbonitrile]",0.1 to 100 nM
